Reference: paper PMC3961306, “Comparison of the Cancer Gene Targeting and Biochemical Selectivities of All Targeted Kinase Inhibitors Approved for Clinical Use” (PLoS ONE, 2014)

Experiments:
Experiment in all cases: Kinase profiling in a biochemical assay panel (mobility shift assays and ELISA), %-inhibition at 1 μM; selectivity entropy
[1] = molecular target: panel of more than 300 wild-type and mutant kinases (313 kinase panel) (Homo sapiens, UniProt Q16654)
[2] = molecular target: T1, panel of more than 300 wild-type and mutant kinases (313 kinase panel) (Homo sapiens, UniProt Q9NZJ5)
T1 sequence (Q9NZJ5 30-1116): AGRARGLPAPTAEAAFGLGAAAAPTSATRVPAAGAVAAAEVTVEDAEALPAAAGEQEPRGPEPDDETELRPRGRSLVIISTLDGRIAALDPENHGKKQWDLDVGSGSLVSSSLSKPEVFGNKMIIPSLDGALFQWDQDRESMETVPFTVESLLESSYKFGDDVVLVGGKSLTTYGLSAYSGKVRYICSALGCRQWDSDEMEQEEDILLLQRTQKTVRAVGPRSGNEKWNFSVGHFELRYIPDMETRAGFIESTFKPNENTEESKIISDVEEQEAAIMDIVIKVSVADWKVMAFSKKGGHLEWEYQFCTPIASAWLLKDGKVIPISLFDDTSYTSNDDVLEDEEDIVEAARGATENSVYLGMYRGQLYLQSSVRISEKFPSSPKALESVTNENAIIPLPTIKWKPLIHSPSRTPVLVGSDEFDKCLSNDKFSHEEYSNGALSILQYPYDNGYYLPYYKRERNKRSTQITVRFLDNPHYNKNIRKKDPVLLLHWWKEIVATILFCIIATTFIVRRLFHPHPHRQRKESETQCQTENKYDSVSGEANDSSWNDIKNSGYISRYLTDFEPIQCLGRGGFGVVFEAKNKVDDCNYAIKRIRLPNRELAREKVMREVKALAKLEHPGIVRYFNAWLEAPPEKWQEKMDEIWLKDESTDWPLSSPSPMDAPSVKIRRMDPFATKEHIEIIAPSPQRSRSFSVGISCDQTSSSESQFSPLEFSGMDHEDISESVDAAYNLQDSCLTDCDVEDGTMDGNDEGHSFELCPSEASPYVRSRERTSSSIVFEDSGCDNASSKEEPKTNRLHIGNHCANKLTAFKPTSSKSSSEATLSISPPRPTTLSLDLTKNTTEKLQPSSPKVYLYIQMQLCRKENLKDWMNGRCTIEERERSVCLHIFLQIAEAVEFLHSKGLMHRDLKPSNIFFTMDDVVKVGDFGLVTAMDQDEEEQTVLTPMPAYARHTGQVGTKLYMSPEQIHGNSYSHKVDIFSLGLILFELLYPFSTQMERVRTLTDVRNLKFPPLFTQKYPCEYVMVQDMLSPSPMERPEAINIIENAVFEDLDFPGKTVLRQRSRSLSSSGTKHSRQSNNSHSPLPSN

[3] = molecular target: panel of more than 300 wild-type and mutant kinases (313 kinase panel) (Homo sapiens, UniProt O75676)
[4] = molecular target: panel of more than 300 wild-type and mutant kinases (313 kinase panel) (Homo sapiens, UniProt P22455, V550L); settings: kinase FGFR4(V550L); compound at 1 μM
[5] = molecular target: panel of more than 300 wild-type and mutant kinases (313 kinase panel) (Homo sapiens, UniProt P43405)
[6] = molecular target: panel of more than 300 wild-type and mutant kinases (313 kinase panel) (Homo sapiens, UniProt P78368)
[7] = molecular target: panel of more than 300 wild-type and mutant kinases (313 kinase panel) (Homo sapiens, UniProt P80192)
[8] = molecular target: panel of more than 300 wild-type and mutant kinases (313 kinase panel) (Homo sapiens, UniProt Q9HBH9)
[9] = molecular target: panel of more than 300 wild-type and mutant kinases (313 kinase panel) (Homo sapiens, UniProt Q9Y3S1)
[10] = molecular target: panel of more than 300 wild-type and mutant kinases (313 kinase panel) (Homo sapiens, UniProt P54764)
[11] = molecular target: panel of more than 300 wild-type and mutant kinases (313 kinase panel) (Homo sapiens, UniProt Q9P289)
panel of more than 300 wild-type and mutant kinases (313 kinase panel) (Homo sapiens, UniProt Q9P289), sequence (Q9P289 whole entry, change not shown): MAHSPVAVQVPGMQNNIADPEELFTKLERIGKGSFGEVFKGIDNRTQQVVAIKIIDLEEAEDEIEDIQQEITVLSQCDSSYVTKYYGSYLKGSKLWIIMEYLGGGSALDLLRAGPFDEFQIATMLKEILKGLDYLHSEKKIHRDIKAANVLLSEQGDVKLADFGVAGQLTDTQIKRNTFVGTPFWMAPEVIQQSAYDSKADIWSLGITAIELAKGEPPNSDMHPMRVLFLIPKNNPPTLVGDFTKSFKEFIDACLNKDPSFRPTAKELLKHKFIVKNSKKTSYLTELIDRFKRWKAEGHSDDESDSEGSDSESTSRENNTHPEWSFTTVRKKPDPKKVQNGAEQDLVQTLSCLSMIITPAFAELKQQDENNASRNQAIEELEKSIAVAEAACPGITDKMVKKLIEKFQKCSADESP

panel of more than 300 wild-type and mutant kinases (313 kinase panel) (Homo sapiens, UniProt P54764), sequence (P54764 20-986, change not shown): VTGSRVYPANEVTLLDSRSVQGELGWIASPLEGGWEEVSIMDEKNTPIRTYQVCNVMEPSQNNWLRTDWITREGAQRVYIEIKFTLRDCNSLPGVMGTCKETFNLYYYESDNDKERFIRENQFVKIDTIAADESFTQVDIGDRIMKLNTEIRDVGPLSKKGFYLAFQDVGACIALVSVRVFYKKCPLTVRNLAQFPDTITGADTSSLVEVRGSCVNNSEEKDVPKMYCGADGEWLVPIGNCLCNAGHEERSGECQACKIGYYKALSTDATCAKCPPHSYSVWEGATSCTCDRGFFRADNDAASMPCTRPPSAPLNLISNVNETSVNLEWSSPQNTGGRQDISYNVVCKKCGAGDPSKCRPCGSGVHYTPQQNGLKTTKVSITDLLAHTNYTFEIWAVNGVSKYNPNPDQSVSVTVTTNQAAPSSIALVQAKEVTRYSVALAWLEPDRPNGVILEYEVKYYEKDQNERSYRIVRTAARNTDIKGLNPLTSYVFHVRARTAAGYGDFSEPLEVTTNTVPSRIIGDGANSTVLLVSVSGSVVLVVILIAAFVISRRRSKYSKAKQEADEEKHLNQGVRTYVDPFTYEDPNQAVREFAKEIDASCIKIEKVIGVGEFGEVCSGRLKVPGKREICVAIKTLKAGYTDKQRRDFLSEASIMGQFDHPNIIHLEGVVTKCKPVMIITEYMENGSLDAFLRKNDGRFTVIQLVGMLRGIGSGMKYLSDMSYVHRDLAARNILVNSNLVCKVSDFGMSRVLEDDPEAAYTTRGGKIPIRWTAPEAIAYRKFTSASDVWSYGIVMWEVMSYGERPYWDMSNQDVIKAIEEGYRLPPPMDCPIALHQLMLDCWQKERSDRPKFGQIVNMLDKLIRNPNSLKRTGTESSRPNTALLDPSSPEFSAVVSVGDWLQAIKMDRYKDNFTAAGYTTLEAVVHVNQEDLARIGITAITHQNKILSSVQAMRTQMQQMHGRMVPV
panel of more than 300 wild-type and mutant kinases (313 kinase panel) (Homo sapiens, UniProt P22455, V550L), sequence (P22455 22-802 V550L): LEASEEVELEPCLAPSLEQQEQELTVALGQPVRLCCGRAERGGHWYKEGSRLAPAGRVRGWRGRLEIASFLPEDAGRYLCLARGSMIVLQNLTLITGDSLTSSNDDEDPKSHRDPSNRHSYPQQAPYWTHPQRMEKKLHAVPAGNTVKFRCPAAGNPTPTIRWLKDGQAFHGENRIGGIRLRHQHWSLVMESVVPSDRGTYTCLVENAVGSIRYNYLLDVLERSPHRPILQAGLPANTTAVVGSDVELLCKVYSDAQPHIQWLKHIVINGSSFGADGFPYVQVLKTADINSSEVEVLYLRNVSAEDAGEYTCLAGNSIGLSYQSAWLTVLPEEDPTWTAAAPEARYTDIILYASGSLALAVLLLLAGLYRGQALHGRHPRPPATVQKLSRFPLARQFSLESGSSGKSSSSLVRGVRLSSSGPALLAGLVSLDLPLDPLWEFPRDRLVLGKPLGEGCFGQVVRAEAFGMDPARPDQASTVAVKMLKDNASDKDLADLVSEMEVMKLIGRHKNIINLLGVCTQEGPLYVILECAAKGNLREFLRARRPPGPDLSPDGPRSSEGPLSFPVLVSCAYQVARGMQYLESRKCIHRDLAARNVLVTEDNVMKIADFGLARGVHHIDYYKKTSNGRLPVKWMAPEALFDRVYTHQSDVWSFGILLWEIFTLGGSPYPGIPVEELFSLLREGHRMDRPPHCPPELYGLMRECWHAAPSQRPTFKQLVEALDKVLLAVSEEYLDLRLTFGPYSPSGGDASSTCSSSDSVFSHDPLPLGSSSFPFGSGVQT
panel of more than 300 wild-type and mutant kinases (313 kinase panel) (Homo sapiens, UniProt P80192), sequence (P80192 whole entry, change not shown): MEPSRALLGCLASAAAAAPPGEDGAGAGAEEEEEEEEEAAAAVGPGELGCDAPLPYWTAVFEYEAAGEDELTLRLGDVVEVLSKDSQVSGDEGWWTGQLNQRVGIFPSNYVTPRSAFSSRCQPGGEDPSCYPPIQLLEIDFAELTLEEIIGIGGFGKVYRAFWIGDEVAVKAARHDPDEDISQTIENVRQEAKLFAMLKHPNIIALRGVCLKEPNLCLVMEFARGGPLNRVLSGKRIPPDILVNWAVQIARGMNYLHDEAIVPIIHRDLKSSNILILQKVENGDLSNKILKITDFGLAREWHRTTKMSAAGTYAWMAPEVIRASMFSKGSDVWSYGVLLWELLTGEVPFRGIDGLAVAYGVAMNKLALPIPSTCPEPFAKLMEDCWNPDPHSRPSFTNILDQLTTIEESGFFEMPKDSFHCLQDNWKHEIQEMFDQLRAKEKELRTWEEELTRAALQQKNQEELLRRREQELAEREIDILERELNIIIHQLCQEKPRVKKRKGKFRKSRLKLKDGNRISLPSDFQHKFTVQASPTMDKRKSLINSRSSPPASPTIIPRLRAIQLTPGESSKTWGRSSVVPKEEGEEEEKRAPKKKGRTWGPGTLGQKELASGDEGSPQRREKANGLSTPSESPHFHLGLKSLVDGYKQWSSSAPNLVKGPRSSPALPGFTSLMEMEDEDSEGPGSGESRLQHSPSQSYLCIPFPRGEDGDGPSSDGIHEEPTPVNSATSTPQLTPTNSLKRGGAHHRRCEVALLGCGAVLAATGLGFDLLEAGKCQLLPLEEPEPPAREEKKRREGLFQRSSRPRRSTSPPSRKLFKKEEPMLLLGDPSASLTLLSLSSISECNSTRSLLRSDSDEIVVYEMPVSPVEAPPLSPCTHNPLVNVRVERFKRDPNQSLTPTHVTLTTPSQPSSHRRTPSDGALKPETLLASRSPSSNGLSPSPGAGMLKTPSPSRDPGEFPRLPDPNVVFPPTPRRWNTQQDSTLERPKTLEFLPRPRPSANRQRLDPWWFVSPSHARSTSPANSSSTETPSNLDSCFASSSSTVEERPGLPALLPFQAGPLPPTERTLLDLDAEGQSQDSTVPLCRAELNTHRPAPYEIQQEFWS

Row | Compound | %-inhibition of PDHK4 ([1]; kinase PDHK4, 1 μM) | %-inhibition of PEK ([2]; kinase PEK, 1 μM) | %-inhibition of MSK2 ([3]; kinase MSK2, 1 μM) | %-inhibition of FGFR4(V550L) [4] | %-inhibition of SYK ([5]; kinase SYK, 1 μM) | %-inhibition, CK1γ2 ([6]; kinase CK1γ2, 1 μM compound) | %-inhibition of MLK1 ([7]; kinase MLK1, 1 μM) | %-inhibition of MNK2 ([8]; kinase MNK2, 1 μM) | %-inhibition of WNK2 ([9]; kinase WNK2, compound at 1 μM) | %-inhibition of EPHA4 ([10]; kinase EPHA4, compound at 1 μM) | %-inhibition of MST4 ([11]; kinase MST4, 1 μM) | other results
1 | CN(C)C/C=C/C(=O)Nc1cc2c(Nc3ccc(F)c(Cl)c3)ncnc2cc1O[C@H]1CCOC1 [afatinib] | -3.28% | 12% |  |  |  |  |  |  |  |  |  | 
2 | COc1cc(Nc2c(C#N)cnc3cc(OCCCN4CCN(C)CC4)c(OC)cc23)c(Cl)cc1Cl [bosutinib] |  | 11% | -2.27% | -7% | 100% | -2.3% | 93% | -2% | 4% |  |  | 
3 | COc1cc2nccc(Oc3ccc(NC(=O)C4(C(=O)Nc5ccc(F)cc5)CC4)cc3)c2cc1OC [cabozantinib] | 3.76% | 79% | -3.52% | -1.35% | -3% | 0.731% | 20% | 97% | 6.43% | 97% | -1.74% | 
4 | C[C@@H](Oc1cc(-c2cnn(C3CCNCC3)c2)cnc1N)c1c(Cl)ccc(F)c1Cl [crizotinib] | -3.76% | 1.1% | -1.8% | 0.45% |  |  | 2.82% | 2% | -4% | 58% | 0.54% | 
5 | CC(C)(C)c1nc(-c2cccc(NS(=O)(=O)c3c(F)cccc3F)c2F)c(-c2ccnc(N)n2)s1 [dabrafenib] | -1% |  |  | -1.08% | 37% |  |  |  | 0.686% | 12% | -7% | 
6 | Cc1nc(Nc2ncc(C(=O)Nc3c(C)cccc3Cl)s2)cc(N2CCN(CCO)CC2)n1 [dasatinib] |  |  |  |  | 69% | 20% |  |  | 20% |  |  | 
7 | C#Cc1cccc(Nc2ncnc3cc(OCCOC)c(OCCOC)cc23)c1 [erlotinib] |  |  |  |  |  |  |  |  |  |  |  | %-inhibition of MSK2 ([3]; 1 µM): 5%; %-inhibition of SYK ([5]; 1 µM): 17%; %-inhibition of EPHA4 ([10]; 1 µM): 32%; %-inhibition, CK1γ2 ([6]; 1 µM): 8%; %-inhibition of MLK1 ([7]; 1 µM): 14%; %-inhibition of PDHK4 ([1]; 1 µM): -9%; %-inhibition of MNK2 ([8]; 1 µM): 35%; %-inhibition of PEK ([2]; 1 µM): 1.35%; %-inhibition of MST4 ([11]; 1 µM): 7%; %-inhibition of WNK2 ([9]; 1 µM): -7%
8 | CO[C@H]1C[C@@H]2CC[C@@H](C)[C@@](O)(O2)C(=O)C(=O)N2CCCC[C@H]2C(=O)O[C@H]([C@H](C)C[C@@H]2CC[C@@H](OCCO)[C@H](OC)C2)CC(=O)[C@H](C)/C=C(\C)[C@@H](O)[C@@H](OC)C(=O)[C@H](C)C[C@H](C)/C=C/C=C/C=C/1C [everolimus] | 2% | 5.28% | -7% | -10% | -2.55% | -2.3% | 5% | 1.88% | -8% | -2.61% | -5.58% | 
9 | O=S(=O)(c1cccc2cnccc12)N1CCCNCC1 [fasudil] | 4.74% | -7.4% | 15% |  | 6% | 18% | 3.31% | 12% | 1.45% | -6% | 0.181% | 
10 | CS(=O)(=O)CCNCc1ccc(-c2ccc3ncnc(Nc4ccc(OCc5cccc(F)c5)c(Cl)c4)c3c2)o1 [lapatinib] | -4.31% | -0.193% | 2% |  | 0% | -1.22% | 7% | 2.43% | -5% | -0.823% |  | 
11 | Cc1cn(-c2cc(NC(=O)c3ccc(C)c(Nc4nccc(-c5cccnc5)n4)c3)cc(C(F)(F)F)c2)cn1 [nilotinib] | -4.31% | 0.387% | 2.55% |  | 54% | 5.57% | -12% | 2% | -8% |  | 1.77% | 
12 | Cc1ccc(Nc2nccc(N(C)c3ccc4c(C)n(C)nc4c3)n2)cc1S(N)(=O)=O [pazopanib] | -1% | 2.38% | 1.45% |  | 40% | -0.747% | 90% | 2.27% | 3% | 22% | -3.23% | 
13 | Cc1ccc(C(=O)Nc2ccc(CN3CCN(C)CC3)c(C(F)(F)F)c2)cc1C#Cc1cnc2cccnn12 [ponatinib] | -1.4% | 65% | 27% | 20% | 10% | 0.169% | 29% | 97% | 13% |  |  | 
14 | CNC(=O)c1cc(Oc2ccc(NC(=O)Nc3ccc(Cl)c(C(F)(F)F)c3)c(F)c2)ccn1 [regorafenib] | -1.61% | 12% | 2.43% | 3.37% | 3.55% | -3% | -7% | 73% | -4.43% | 92% | 3.66% | 
15 | CCN(CC)CCNC(=O)c1c(C)[nH]c(/C=C2\C(=O)Nc3ccc(F)cc32)c1C [sunitinib] |  |  |  |  |  |  |  |  |  |  | 34% | 
16 | COc1cc2c(Nc3ccc(Br)cc3F)ncnc2cc1OCC1CCN(C)CC1 [vandetanib] | -1.83% | 4.69% | -3.21% | -4.72% | 27% | -2% | 42% |  | -4.29% |  | -2.22% | 
